Source: the supplement of paper PMC4862054

Legend:
Assay in all cases: normalised viability (% of control), CellTiter-Blue; higher = more viable cells (about 100 = DMSO control)
MFM-223 [1] = conditions: 100 nM; incubation time: 72 h
Method: (§1)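 DSRT, CellTiter-Blue viability, 72 h incubation. Signal is normalised to DMSO and benzethonium chloride controls. Value is the normalised response at dose 3.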

SK-BR-3 [2] = conditions: 100 nM; incubation time: 72 h
Method: as §1

MDA-MB-231 [3] = conditions: 100 nM; incubation time: 72 h
Method: as §1

MDA-MB-436 [4] = conditions: 100 nM; incubation time: 72 h
Method: as §1

HDQ-P1 [5] = conditions: 10 nM; incubation time: 72 h
Method: as §1

Hs578T [6] = conditions: 100 nM; incubation time: 72 h
Method: as §1

MDA-MB-453 [7] = conditions: 10 nM; incubation time: 72 h
Method: as §1

MDA-MB-468 [8] = conditions: 100 nM; incubation time: 72 h
Method: as §1

BT-474 [9] = conditions: 100 nM; incubation time: 72 h
Method: as §1

CAL-85-1 = conditions: incubation time: 72 h
Method in brief: (§2)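 Each entry is normalised viability at a single listed concentration within a series. It comes from breast cancer cell lines incubated 72 h with compound in 384-well plates, then measured with CellTiter-Blue fluorescence at 560/590 nm. Every plate was normalised between vehicle (100) and a positive kill control (0).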

MFM-223 [10] = conditions: incubation time: 72 h
Method in brief: as §2

SK-BR-3 [11] = conditions: incubation time: 72 h
Method in brief: as §2

MDA-MB-231 [12] = conditions: incubation time: 72 h
Method in brief: as §2

HCC1937 = conditions: incubation time: 72 h
Method in brief: as §2

MDA-MB-436 [13] = conditions: incubation time: 72 h
Method in brief: as §2

CAL-51 = conditions: incubation time: 72 h
Method in brief: as §2

BT-549 = conditions: incubation time: 72 h
Method in brief: as §2

HDQ-P1 [14] = conditions: incubation time: 72 h
Method in brief: as §2

Hs578T [15] = conditions: incubation time: 72 h
Method in brief: as §2

HCC1143 = conditions: incubation time: 72 h
Method in brief: as §2

CAL-120 = conditions: incubation time: 72 h
Method in brief: as §2

MDA-MB-453 [16] = conditions: incubation time: 72 h
Method in brief: as §2

CAL-148 = conditions: incubation time: 72 h
Method in brief: as §2

HCC1599 = conditions: incubation time: 72 h
Method in brief: as §2

MDA-MB-468 [17] = conditions: incubation time: 72 h
Method in brief: as §2

DU-4475 = conditions: incubation time: 72 h
Method in brief: as §2

BT-474 [18] = conditions: incubation time: 72 h
Method in brief: as §2

COc1ccc(C2=N[C@@H](c3ccc(Cl)cc3)[C@@H](c3ccc(Cl)cc3)N2C(=O)N2CCNC(=O)C2)c(OC(C)C)c1 [Nutlin-3]
normalised viability (MFM-223 [1]): 83.2% | normalised viability (SK-BR-3 [2]): 72.8% | normalised viability (MDA-MB-231 [3]): 88.3% | normalised viability (MDA-MB-436 [4]): 97.9% | normalised viability (HDQ-P1 [5]): 113% | normalised viability (Hs578T [6]): 101% | normalised viability (MDA-MB-453 [7]): 98.7% | normalised viability (MDA-MB-468 [8]): 95.8% | normalised viability (BT-474 [9]): 109% | normalised viability (CAL-85-1; 3 nM): 84.5% | normalised viability (CAL-85-1; 30 nM): 78.5% | normalised viability (CAL-85-1; 100 nM): 90.4% | normalised viability (MFM-223 [10]; 10 nM): 87.5% | normalised viability (MFM-223 [10]; 1000 nM): 83.2% | normalised viability (MFM-223 [10]; 10000 nM): 81.6% | normalised viability (SK-BR-3 [11]; 10 nM): 103% | normalised viability (SK-BR-3 [11]; 1000 nM): 98.1% | normalised viability (SK-BR-3 [11]; 10000 nM): 101% | normalised viability (MDA-MB-231 [12]; 10 nM): 102% | normalised viability (MDA-MB-231 [12]; 1000 nM): 97.7% | normalised viability (MDA-MB-231 [12]; 10000 nM): 104% | normalised viability (HCC1937; 10 nM): 81.3% | normalised viability (HCC1937; 1000 nM): 98.7% | normalised viability (HCC1937; 10000 nM): 113% | normalised viability (MDA-MB-436 [13]; 10 nM): 108% | normalised viability (MDA-MB-436 [13]; 1000 nM): 82.3% | normalised viability (MDA-MB-436 [13]; 10000 nM): 110% | normalised viability (CAL-51; 3 nM): 101% | normalised viability (CAL-51; 30 nM): 98.6% | normalised viability (CAL-51; 100 nM): 97.5% | normalised viability (BT-549; 10 nM): 91.3% | normalised viability (BT-549; 1000 nM): 98.4% | normalised viability (BT-549; 10000 nM): 103% | normalised viability (HDQ-P1 [14]; 3 nM): 107% | normalised viability (HDQ-P1 [14]; 30 nM): 112% | normalised viability (HDQ-P1 [14]; 100 nM): 107% | normalised viability (Hs578T [15]; 10 nM): 105% | normalised viability (Hs578T [15]; 1000 nM): 117% | normalised viability (Hs578T [15]; 10000 nM): 100% | normalised viability (HCC1143; 10 nM): 77.6% | normalised viability (HCC1143; 1000 nM): 82.8% | normalised viability (HCC1143; 10000 nM): 82.9% | normalised viability (CAL-120; 10 nM): 82.8% | normalised viability (CAL-120; 1000 nM): 85.2% | normalised viability (CAL-120; 10000 nM): 96.6% | normalised viability (MDA-MB-453 [16]; 3 nM): 104% | normalised viability (MDA-MB-453 [16]; 30 nM): 92% | normalised viability (MDA-MB-453 [16]; 100 nM): 99.8% | normalised viability (CAL-148; 3 nM): 86% | normalised viability (CAL-148; 30 nM): 89.8% | normalised viability (CAL-148; 100 nM): 95.6% | normalised viability (HCC1599; 10 nM): 96.1% | normalised viability (HCC1599; 1000 nM): 104% | normalised viability (HCC1599; 10000 nM): 97.4% | normalised viability (MDA-MB-468 [17]; 10 nM): 104% | normalised viability (MDA-MB-468 [17]; 1000 nM): 104% | normalised viability (MDA-MB-468 [17]; 10000 nM): 90.1% | normalised viability (DU-4475; 3 nM): 85.7% | normalised viability (DU-4475; 30 nM): 90.3% | normalised viability (DU-4475; 100 nM): 87.4% | normalised viability (BT-474 [18]; 10 nM): 120% | normalised viability (BT-474 [18]; 1000 nM): 114% | normalised viability (BT-474 [18]; 10000 nM): 90.3%
